Columns and labels:
human cathepsin K = human cathepsin K (UniProt P43236, Y175D/V274L, species not given); test: Cathepsin K Assay; type: biochemical; settings: IP from dose response curve; Z-Leu-Arg-AMC substrate, pH 5.5; read-out: hrbCat K (IP (nM))
human cathepsin F = biological target: T1, human cathepsin F (Homo sapiens, UniProt Q9UBX1); test: Cathepsin F Assay; type: biochemical; settings: IP from dose response curve; Z-Phe-Arg-AMC substrate, pH 5.5; read-out: hCat F (IP (nM))
T1 sequence (Q9UBX1 271-484): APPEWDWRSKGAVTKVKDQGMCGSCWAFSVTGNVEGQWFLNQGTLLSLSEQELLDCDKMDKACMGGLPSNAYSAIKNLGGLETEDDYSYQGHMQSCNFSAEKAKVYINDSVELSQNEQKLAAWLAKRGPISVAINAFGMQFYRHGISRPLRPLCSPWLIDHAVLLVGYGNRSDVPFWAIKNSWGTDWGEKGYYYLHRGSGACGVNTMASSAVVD
In short: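 Human cathepsin F (10 nM) preincubated 15 min at room temperature with compounds in 50 mM MES pH 5.5, 2.5 mM EDTA, 2.5 mM DTT, 10% DMSO. Z-Phe-Arg-AMC (8 μM) added; AMC release read by fluorescence (Ex 360/Em 460 nm) over 20 min, inhibition fit to dose-response model.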

Compound	IC50 (human cathepsin K) [nM]	IC50 (human cathepsin F) [nM]
N#Cc1ccc(-n2cc(-c3ccc(N4CCS(=O)(=O)CC4)cc3)c([C@@H]3CCCC[C@H]3C(=O)NC3(C#N)CC3)n2)c(Cl)c1 [Example 104, (1R,2R)-2-(1-(2-chloro-4-cyanophenyl)-4-(4-(1,1-dioxidothiomorpholino)phen-yl)-1H-pyrazol-3-yl)-N-(1-cyanocyclopropyl)cyclohex-anecarboxamide]	2.02	411
CC(C)[C@@H](C#N)NC(=O)[C@@H]1CC(F)(F)CC[C@H]1c1nn2ccccc2c1-c1ccc(N2CCS(=O)(=O)CC2)cc1 [Example 73, (1R,2R)-N-((S)-1-cyano-2-methylpropyl)-2-(3-(4-(1,1-dioxidothiomorpholino)phen-yl)pyrazolo[1,5-a]pyridin-2-yl)-5,5-difluorocyclohexanecarbox-amide]	5.19	269
N#CC1(NC(=O)[C@@H]2C[C@@H](F)CC[C@H]2c2nn(-c3ncccc3F)cc2-c2ccc(N3CCS(=O)(=O)CC3)cc2)CC1 [Example 29, (1R,2R,5S)-N-(1-cyanocyclopropyl)-2-(4-(4-(1,1-dioxidothiomorpholino)phen-yl)-1-(3-fluoropyridin-2-yl)-1H-pyrazol-3-yl)-5-fluorocyclohexanecarboxamide]	6.2	6780
N#CC1(NC(=O)[C@@H]2CCCC[C@H]2c2nn(-c3ccc(F)cc3)cc2-c2ccc(C(=O)N3CCOCC3)cc2)CC1 [Example 88, (1R,2R)-N-(1-cyanocyclopropyl)-2-(1-(4-fluorophenyl)-4-(4-(morpholine-4-carbonyl)phenyl)-1H-pyrazol-3-yl)cyclohexanecarboxamide]	6.9	1010
N#CC1(NC(=O)[C@@H]2CC3CC3C[C@H]2c2nn(-c3ccc(F)cc3)cc2-c2ccc(N3CCS(=O)(=O)CC3)cc2)CC1 (single isomer, unassigned) [Example 4, (1R or 1S,3R,4R,6S or 6R)—N-(1-Cyanocyclopropyl)-4-(4-(4-(1,1-dioxidothiomorpholino)phenyl)-1-(4-fluorophenyl)-1H-pyrazol-3-yl)bicyclo[4.1.0]heptane-3-carboxamide]	0.93	258
C[C@@H](C#N)NC(=O)[C@@H]1CC(F)(F)CC[C@H]1c1nn(-c2ccc(F)cn2)c(CO)c1-c1ccc(N2CCS(=O)(=O)CC2)cc1 [Example 67, (1R,2R)-N-((S)-1-cyanoethyl)-2-(4-(4-(1,1-dioxidothiomorpholino)phen-yl)-1-(5-fluoropyridin-2-yl)-5-(hydroxymethyl)-1H-pyrazol-3-yl)-5,5-difluorocyclohexanecarbox-amide]	1.24	146
N#CN=S1(=O)CCN(c2ccc(-c3cn(-c4ccc(F)cc4)nc3[C@@H]3CCCC[C@H]3C(=O)NC3(C#N)CC3)cc2)CC1 [Example 19, (1R,2R)-N-(1-cyanocyclopropyl)-2-(4-(4-(1-(cyanoimino)-1-oxidothiomorpholino)phenyl)-1-(4-fluorophenyl)-1H-pyrazol-3-yl)cyclohexanecarboxamide]	2.2	809
N#CC1(NC(=O)[C@@H]2CCC(F)(F)C[C@H]2c2nn(-c3ccc(F)cn3)cc2-c2ccc(N3CCS(=N)(=O)CC3)cc2)CC1 [Example 20, (1R,2R)-N-(1-cyanocyclopropyl)-4,4-difluoro-2-(1-(5-fluoropyridin-2-yl)-4-(4-(1-imino-1-oxidothiomorpholino)phenyl)-1H-pyrazol-3-yl)cyclohexanecarboxamide]	6.81	1820
N#CC1(NC(=O)[C@@H]2CCCC[C@H]2c2nn(-c3ccc(C(O)(C(F)(F)F)C(F)(F)F)cc3)cc2-c2ccc(N3CCS(=O)(=O)CC3)cc2)CC1 [Example 109, (1R,2R)-N-(1-cyanocyclopropyl)-2-(4-(4-(1,1-dioxidothiomorpholino)phen-yl)-1-(4-(1,1,1,3,3,3-hexafluoro-2-hydroxypropan-2-yl)phenyl)-1H-pyrazol-3-yl)cyclohexanecarboxamide]	2.67	267
N#CC1(NC(=O)[C@@H]2CC(F)(F)CC[C@H]2c2nn(-c3ccc(F)cn3)c(C(F)F)c2-c2ccc(N3CCS(=O)(=O)CC3)cc2)CC1 [Example 71, (1R,2R)-N-(1-cyanocyclopropyl)-2-(5-(difluoromethyl)-4-(4-(1,1-dioxidothiomorpholino)phen-yl)-1-(5-fluoropyridin-2-yl)-1H-pyrazol-3-yl)-5,5-difluorocyclohexanecarbox-amide]	2.35	149
CCN=S1(=O)CCN(c2ccc(-c3cn(-c4ccc(F)cc4)nc3[C@@H]3CCCC[C@H]3C(=O)NC3(C#N)CC3)cc2)CC1 [Example 138, (1R,2R)-N-(1-cyanocyclopropyl)-2-(4-(4-(1-(ethylimino)-1-oxidothiomorpholino)phenyl)-1-(4-fluorophenyl)-1H-pyrazol-3-yl)cyclohexanecarboxamide]	1.62	725
N#CC1(NC(=O)[C@@H]2C[C@@H](F)CC[C@H]2c2nn(-c3ccc(F)cn3)cc2-c2ccc(N3CCS(=N)(=O)CC3)cc2)CC1 [Example 59, (1R,2R,5S)-N-(1-cyanocyclopropyl)-5-fluoro-2-(1-(5-fluoropyridin-2-yl)-4-(4-(1-imino-1-oxidothiomorpholino)phenyl)-1H-pyrazol-3-yl)cyclohexanecarboxamide]	1.29	2460
N#CC1(NC(=O)[C@@H]2CC3CC3C[C@H]2c2nn(-c3ccc(Cl)cn3)cc2-c2ccc(N3CCS(=O)(=O)CC3)cc2)CC1 (single isomer, unassigned) [Example 154, (1R,3R,4R,6S) or (1S,3R,4R,6R)-4-(1-(5-chloropyridin-2-yl)-4-(4-(1,1-dioxidothiomorpholino)phen-yl)-1H-pyrazol-3-yl)-N-(1-cyanocyclopropyl)bicyclo [4.1.0]heptane-3-carboxamide]	0.74	279
CNC(=O)N1CC(c2ccc(-c3cn(-c4ccc(F)cc4)nc3[C@@H]3CCCC[C@H]3C(=O)NC3(C#N)CC3)cc2)C1 [Example 135, 3-(4-(3-((1R,2R)-2-((1-cyanocyclopropyl)carbamoyl)cyclohexyl)-1-(4-fluorophenyl)-1H-pyrazol-4-yl)phenyl)-N-methylazetidine-1-carboxamide]	0.71	64
CC(C)(O)c1ccc(-n2cc(-c3ccc(N4CCS(=O)(=O)CC4)cc3)c([C@@H]3CCCC[C@H]3C(=O)NC3(C#N)CC3)n2)cc1 [Example 97, (1R,2R)-N-(1-cyanocyclopropyl)-2-(4-(4-(1,1-dioxidothiomorpholino)phen-yl)-1-(4-(2-hydroxypropan-2-yl)phenyl)-1H-pyrazol-3-yl)cyclohexanecarboxamide]	0.8	764
CN=S1(=O)CCN(c2ccc(-c3cn(-c4ccc(F)cc4)nc3[C@@H]3CC[C@H](F)C[C@H]3C(=O)NC3(C#N)CC3)cc2)CC1 [Example 15, (1R,2R,5S)-N-(1-cyanocyclopropyl)-5-fluoro-2-(1-(4-fluorophenyl)-4-(4-(1-(methylimino)-1-oxidothiomorpholino)phenyl)-1H-pyrazol-3-yl)cyclohexanecarboxamide]	3	1780
CC(C)(O)c1cccc(-n2cc(-c3ccc(N4CCS(=O)(=O)CC4)cc3)c([C@@H]3CCCC[C@H]3C(=O)NC3(C#N)CC3)n2)c1 [Example 96, (1R,2R)-N-(1-cyanocyclopropyl)-2-(4-(4-(1,1-dioxidothiomorpholino)phen-yl)-1-(3-(2-hydroxypropan-2-yl)phenyl)-1H-pyrazol-3-yl)cyclohexanecarboxamide]	1.27	824
N#CC1(NC(=O)[C@@H]2CCCC[C@H]2c2nn(-c3ccc(OC(F)F)cc3)cc2-c2ccc(N3CCS(=O)(=O)CC3)cc2)CC1 [Example 111, (1R,2R)-N-(1-cyanocyclopropyl)-2-(1-(4-(difluoromethoxy)phenyl)-4-(4-(1,1-dioxidothiomorpholino)phen-yl)-1H-pyrazol-3-yl)cyclohexanecarboxamide]	0.86	392
CN=S1(=O)CCN(c2ccc(-c3cn(-c4ccc(F)cn4)nc3[C@@H]3CCCC[C@H]3C(=O)NC3(C#N)CC3)cc2)CC1 [Example 156, (1R,2R)-N-(1-cyanocyclopropyl)-2-(1-(5-fluoropyridin-2-yl)-4-(4-(1-(methylimino)-1-oxidothiomorpholino)phenyl)-1H-pyrazol-3-yl)cyclohexanecarboxamide]	1.47	945
CC(C)[C@@H](C#N)NC(=O)[C@@H]1CC(F)(F)CC[C@H]1c1nn(-c2ccc(F)cc2)c(CO)c1-c1ccc(N2CCS(=O)(=O)CC2)cc1 [Example 63, (1R,2R)-N-((S)-1-cyano-2-methylpropyl)-2-(4-(4-(1,1-dioxidothiomorpholino)phen-yl)-1-(4-fluorophenyl)-5-(hydroxymethyl)-1H-pyrazol-3-yl)-5,5-difluorocyclohexanecarbox-amide]	1.98	98
N#CC1(NC(=O)[C@@H]2CC(F)(F)CC[C@H]2c2nn(-c3ccc(F)cc3)cc2-c2ccc(N3CCS(=O)(=O)CC3)cc2)CC1 [Example 83, (1R,2R)-N-(1-cyanocyclopropyl)-2-(4-(4-(1,1-dioxidothiomorpholino)phen-yl)-1-(4-fluorophenyl)-1H-pyrazol-3-yl)-5,5-difluorocyclohexanecarbox-amide]	0.47	28
